Ends that are not written are not given here.
Legend:
[1] = tested on: popliteal draining lymph nodes (PLN) T cells; assay: Lymph node T-cell proliferation after immunization of mice with Aβ in CFA; type: cell-based, mouse; settings: for T-cell proliferation across the peptide series Aβ7-21 to Aβ10-24: SJL mice immunized with rodent Aβ1-42; for T-cell proliferation with overlapping peptides: immunized with human Aβ1-42
Aβ16-30-specific T cells = assay: Proliferation of Aβ16-30-specific T cells with alanine/glycine-substituted peptides; type: cell-based, human; settings: for T-cell proliferation, average cpm: 72 hr
From the text: Because the T-cell epitopes were most frequently localized to Aβ16-30, we further mapped this epitope for each of its constituent amino acids by using alanine-substituted peptides in the T-cell proliferation assay (the naturally occurring alanines at positions 21 and 30 were changed to glycines). […] Substitution of lysine-16, alanine-21, serine-26 or aspargine-27 increased T-cell proliferation by more than 2-fold (Table 4).
In this experiment, T cells specific to Aβ16-30 were stimulated in the presence of alanine/glycine substituted peptides and autologous PBMCs. T-cell proliferation was measured by [^3H]-thymidine incorporation 72 hr after stimulation. Numbers represent average cpm of each antigen concentration tested (average cpm in the absence of antigen was 911).
(§1) T-cell lines were then supplemented with 10 μg/ml IL-2 after 48 hours and every 2 days thereafter until they were completely resting. T-cell proliferation was measured 72 hours after stimulation following a 12 hr incubation with [^3H]-thymidine. Supernatants were collected 48 hr after T-cell stimulation, and antigen-induced cytokine production was measured by sandwich ELISA. Recommended pairs of antibodies (coating and detecting) for IL-10 (R&D, Minneapolis, Minn.), INF-γ. Endogen, Woburn, Mass.), IL-13 (PharMingen, (San Diego, Calif.), and TGF-β (Promega, Madison, Wis.) were used according to the manufacturer's instructions. Surface and intracellular staining was performed on Aβ-reactive T-cells after stimulation. All antibodies were purchased from BD Biosciences (San Diego, Calif.) and staining was performed according to the manufacturer's instructions.

[2] = tested on: Aβ1-42-reactive T-cell lines; assay: Epitope mapping / proliferation of Aβ1-42-reactive T-cell lines; type: cell-based, human; settings: for Distribution of Aβ T-cell epitopes: Number of T-cell lines / Distribution of Aβ T-cell epitopes: percent: lines from 24 subjects, fine mapping with 15 amino acid overlapping peptides
Method: Epitope specificity of these 3 T-cell lines using 5 overlapping peptides within Aβ15-42 was further investigated.
as §1

Aβ-reactive T-cell lines = assay: Cytokine secretion of Aβ-reactive T-cell lines (sandwich ELISA); type: cell-based, human
Method: as §1

[3] = App Tg, C57BL6, 12 days after imm.

Method for APP/IFN-g Tg mice: To determine whether carrying the IA^s allele is sufficient to induce T-cell activation and migration to the CNS of APP-tg mice, B6SJLF1 APP-tg mice line J20, see Methods) were immunized with Aβ10-24 in CFA followed by intravenous injection of PT at the time of immunization and 48 hr later.
APP/IFN-γ tg mice that were immunized with Aβb 10-24 were analyzed by immunohistochemistry 20 and 30 days after immunization for immune infiltrates associated with Aβ plaques.
Immunization and measurement of immune responses: Mice were immunized by footpad injection if sacrificed on day 12, for longer periods mice were injected in the flanks. Each mouse received 100 ml of antigen (1 mg/ml), emulsified in an equal volume of complete Freund's adjuvant (CFA). Mice were also injected intravenously with 150 ng pertussis toxin at the time of immunization and 48 hours later.
Immunohistochemistry and imaging: Cryosections (6 μm) from brains of APP-Tg+ mice were placed onto glass slides and fixed with ice-cold methanol for 2 min followed by 2% PFA at RT for 4 min. Sections were washed once with distilled water for 5 min and twice with PBS containing 0.05% Tween-20. Sections were then incubated for 1 hour at RT with blocking buffer (PBS containing 3% normal goat serum and 2% bovine serum albumin).

Substance | T-cell proliferation, average cpm (Aβ16-30-specific T cells; Peptide 0.1 μg/ml) [cpm] | T-cell proliferation, average cpm (Aβ16-30-specific T cells; Peptide 1 μg/ml) [cpm] | T-cell proliferation, average cpm (Aβ16-30-specific T cells; Peptide 10 μg/ml) [cpm] | further results
Aβ8-22: Aβ peptide, residues 8-22 (SGYEVHHQKLVFFAE; Amyloid-beta protein 42; UniProt P05067 679-693, looked up, fragment) |  |  |  | T-cell proliferation across the peptide series Aβ7-21 to Aβ10-24 [1]: gradual increase
Phe 19 Ala: Aβ16-30 peptide with phenylalanine-19 substituted by alanine (KLVAFAEDVGSNKGA; Amyloid-beta protein 42; UniProt P05067 687-701, looked up, variant F19A) | 986 | 4354 | 17943 | effect of substitution on T-cell proliferation (Aβ16-30-specific T cells; only at 0.1 or 1 μg/ml): inhibitory effects
Aβ7-21: nested Aβ peptide, residues 7-21 (DSGYEVHHQKLVFFA; Amyloid-beta protein 42; UniProt P05067 678-692, looked up, fragment) |  |  |  | Distribution of Aβ T-cell epitopes: Number of T-cell lines [2]: 1; Distribution of Aβ T-cell epitopes: percent [2]: 4%; T-cell proliferation ([1]; NOD mice immunized with Aβ1-42): slight T-cell proliferation; T-cell proliferation across the peptide series Aβ7-21 to Aβ10-24 [1]: gradual increase; T-cell proliferation with overlapping peptides ([1]; SJL-derived lymphocyte cultures): induced T-cell proliferation
Ala 30 Gly: Aβ16-30 peptide with alanine 30 changed to glycine (KLVFFAEDVGSNKGG; Amyloid-beta protein 42; UniProt P05067 687-701, looked up, variant A30G) | 2123 | 12027 | 15395 | 
Asn 27 Ala: Aβ16-30 peptide with asparagine-27 substituted by alanine (KLVFFAEDVGSAKGA; Amyloid-beta protein 42; UniProt P05067 687-701, looked up, variant N27A) | 23636 | 36588 | 34983 | 
Aβ19-33: nested Aβ peptide, residues 19-33 (FFAEDVGSNKGAIIG) |  |  |  | location of T-cell epitopes ([2]; T-cell line DRB1 1501/1101, 5 overlapping peptides within Aβ15-42): mainly located
Aβ16-30: nested Aβ peptide, residues 16-30 (KLVFFAEDVGSNKGA; Amyloid-beta protein 42; UniProt P05067 687-701, looked up, fragment) | 1648 | 6780 | 17339 | frequency of positive T-cell lines induced [2]: highest frequency; Distribution of Aβ T-cell epitopes: Number of T-cell lines [2]: 10; Distribution of Aβ T-cell epitopes: percent [2]: 42%; Th2 response (Aβ-reactive T-cell lines): elicit a Th2 response; response compared with that induced by Aβ1-42 ([1]; 10-24 in SJL, 16-30 in C57BL6 mice): equivalent; T-cell proliferation with overlapping peptides ([1]; C57BL6 mice): induced proliferation; recall proliferation of LN-derived T cells in vitro ([1]; SJL mice immunized with human Aβ10-24): not; CD4 (cells/mm^2 ± SEM) (APP/IFN-g Tg mice; [3]): 0 cells/mm^2; CD11b (cells/mm^2 ± SEM) (APP/IFN-g Tg mice; [3]): 0 cells/mm^2
YEVHHQKLVFFAEDV [Aβ10-24] |  |  |  | Immune infiltrates in the spinal cord (APP/IFN-g Tg mice; mouse, in vivo): not observed; meningoencephalitis (APP/IFN-g Tg mice; mouse, in vivo): strong meningoencephalitis
Lys 16 Ala: Aβ16-30 peptide with lysine-16 substituted by alanine (ALVFFAEDVGSNKGA; Amyloid-beta protein 42; UniProt P05067 687-701, looked up, variant K16A) | 5357 | 22304 | 36456 | 
Val 24 Ala: Aβ16-30 peptide with valine-24 substituted by alanine (KLVFFAEDAGSNKGA; Amyloid-beta protein 42; UniProt P05067 687-701, looked up, variant V24A) | 944 | 6160 | 19869 | effect of substitution on T-cell proliferation (Aβ16-30-specific T cells; only at 0.1 or 1 μg/ml): inhibitory effects
Phe 20 Ala: Aβ16-30 peptide with phenylalanine-20 substituted by alanine (KLVFAAEDVGSNKGA; Amyloid-beta protein 42; UniProt P05067 687-701, looked up, variant F20A) | 1188 | 2239 | 4216 | effect of substitution on T-cell proliferation (Aβ16-30-specific T cells; at all 3 concentrations used): blocked or significantly decreased

Reference: patent US20050123553A1, “Amyloid beta-peptide and methods of use” (priority 2003, published 2005)
